Measured values published in patent EP3290412A1, “HIV-1 NUCLEOCAPSID INHIBITORS” (Università degli Studi di Siena, priority 2016, dated 2018).

Key:
[1] = target: T1, full length (1-55) HIV-1 NCp7 (Human immunodeficiency virus type 1 group M subtype B, UniProt P12493); test: Electromobility Shift Assay (EMSA), competition for ssDNA binding; settings: NCp7 300 nM, M13mp18 ssDNA; positive = >25% inhibition at 100µM
T1 construct: recombinant full length (1-55) HIV-1 NCp7 proteins; made in house
Outline: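 Recombinant NL4-3 NCp7 (300 nM in the pre-mix) was combined with compound in 20 mM Tris-HCl pH 7.4, 2 mM MgCl2, 100 mM NaCl, 1 mM DTT, then M13mp18 ssDNA was added for 25 min at 37 °C. Complexes were run on 1% agarose/0.5x TBE and stained with SybrGold. IC50 is the concentration at which bound ssDNA migrated 50% of the bound–unbound distance (triplicate).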

[2] = test system: HIV-1 reference strain NL4-3; test: MonoCycle assay (TZM-bl cells); format: cell-based
Experimental: MonoCycle assay is a cell based assay allowing the evaluation of antiviral activity of HIV-1 inhibitors targeting the early steps of HIV-1 life cycle such as entry, uncoating of viral particles, reverse transcription and integration. The assay consists in the infection of TZM-bl cells (20,000/well) with the HIV-1 reference strain NL4-3 in presence of serial five-fold dilutions of the investigational inhibitors. After 48 hours, cells were lysed adding 40 µl of Glo Lysis Buffer (Promega) to each well for 5 minutes, then 40 µl of Brighy-Glo Luciferase Reagent (Promega) were added to each well for relative luminescence units (RLU) counting using Glo-Max Multi Detection System (Promega). RLU values from each well were elaborated using the GraphPad v5.0 software to calculate the IC50 of each compound.

[3] = test system: HIV-1 reference strain NL4-3; test: BiCycle assay (MT-2 then TZM-bl cells); format: cell-based; settings: for EC50: read-out: Mean EC50 (nM)
Outline: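 MT-2 cells were infected with NL4-3 in the presence of five-fold compound dilutions. After 72 h, the supernatant was passed to TZM-bl cells. Two days later, luciferase luminescence was read and IC50 calculated, giving a readout that spans the whole replication cycle.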

[4] = Human immunodeficiency virus 1, NL43, TZM-bl, 48 h, read-out: Mono Cycle IC50 nM
[5] = Human immunodeficiency virus 1, NL43, TZM-bl, read-out: BiCycle IC50 nM
[6] = Human immunodeficiency virus 1, NL43, TZM-bl cells, NL4-3, 48 hours, read-out: Mono Cycle IC50
[7] = Human immunodeficiency virus 1, NL43, MT-2 cells 72 hours then TZM-bl cells two days, NL4-3, read-out: BiCycle IC50
[8] = Human immunodeficiency virus 1, NL43, TZM-bl

Which results are given for `O=C(NC1CCCCC1)c1nc(-c2ccccn2)nc(O)c1O` [Compound 4, N-cyclohexyl-5,6-dihydroxy-2-(pyridin-2-yl)pyrimidine-4-carboxamide]?
EMSA screening results [1]: Negative; IC50 [2, 4]: > 50000 nM; IC50 [3, 5]: 461 nM

Which results are given for `C[C@@H](NC(=O)c1nc(-c2ccccn2)nc(O)c1O)C1CCCCC1` [Compound 5, (R)-N-(1-cyclohexylethyl)-5,6-dihydroxy-2-(pyridin-2-yl)pyrimidine-4-carboxamide]?
EMSA screening results [1]: Positive (A compound showing >25% inhibition when tested at 100µM concentration is considered as "positive"); IC50 [2, 4]: 2490 nM; IC50 [3, 5]: 702 nM

Which EMSA screening results [1] does the source give for `O=C(NCCC1CCCCC1)c1nc(-c2ccccn2)nc(O)c1O` [Compound 6, N-(2-cyclohexylethyl)-5,6-dihydroxy-2-(pyridin-2-yl)pyrimidine-4-carboxamide] here?
Its EMSA screening results is “Positive (A compound showing >25% inhibition when tested at 100µM concentration is considered as "positive")”.

And the IC50 [2, 4]?
Its IC50 is 4300 nM.

And the IC50 [3, 5]?
Its IC50 is 2260 nM.

Which EMSA screening results [1] does the source give for `CN1CCCC(CNC(=O)c2nc(-c3ccccn3)nc(O)c2O)C1` (centres unmarked) [Compound 7, 5,6-dihydroxy-N-((1-methylpiperidin-3 - yl)methyl)-2-(pyridin-2-yl)pyrimidine-4-carboxamide] here?
Its EMSA screening results is “Positive (A compound showing >25% inhibition when tested at 100µM concentration is considered as "positive")”.

And the IC50 [2, 4]?
The IC50 was greater than 50000 nM.

And the IC50 [3, 5]?
The IC50 was greater than 50000 nM.

`O=C(NCCCC1CCCCC1)c1nc(-c2ccccn2)nc(O)c1O` [Compound 8, N-(3-cyclohexylpropyl)-5,6-dihydroxy-2-(pyridin-2-yl)pyrimidine-4-carboxamide] was tested. Which EMSA screening results [1] did it give?
The EMSA screening results was “Positive (A compound showing >25% inhibition when tested at 100µM concentration is considered as "positive")”.

What about the IC50 [2, 4] of the same compound?
Its IC50 is 4540 nM.

What about the IC50 [3, 5] of the same compound?
The IC50 was 518 nM.

`Cc1cccnc1-c1nc(O)c(O)c(C(=O)OCC2CCCCC2)n1` [Compound 10, cyclohexylmethyl 5,6-dihydroxy-2-(3-methylpyridin-2-yl)pyrimidine-4-carboxylate] was tested. Which EMSA screening results [1] did it give?
The EMSA screening results was “Negative”.

And the IC50 [2, 4]?
Its IC50 is greater than 50000 nM.

What about the IC50 [3, 5] of the same compound?
The IC50 was 1400 nM.

With `Cc1cccnc1-c1nc(O)c(O)c(C(=O)NCC2CCCCC2)n1` [Compound 11, N-(cyclohexylmethyl)-5,6-dihydroxy-2-(3-methylpyridin-2-yl)pyrimidine-4-carboxamide] as the compound, how does the EMSA screening results [1] read?
The EMSA screening results was “Negative”.

What about the IC50 [2, 4] of the same compound?
Its IC50 is 50000 nM.

And the IC50 [3, 5]?
Its IC50 is 716 nM.

What does the source list for `O=C(OCCC1CCCCC1)c1nc(-c2ccccn2)nc(O)c1O` [Compound 12, 2-cyclohexylethyl 5,6-dihydroxy-2-(pyridin-2-yl)pyrimidine-4-carboxylate]?
EMSA screening results [1]: Negative; IC50 [2, 4]: > 50000 nM; IC50 [3, 5]: 2820 nM

Which EMSA screening results [1] does the source give for `O=C(OCCCC1CCCCC1)c1nc(-c2ccccn2)nc(O)c1O` [Compound 14, 3-cyclohexylpropyl 5,6-dihydroxy-2-(pyridin-2-yl)pyrimidine-4-carboxylate] here?
The EMSA screening results was “Negative”.

And the IC50 [2, 4]?
The IC50 was greater than 50000 nM.

And the IC50 [3, 5]?
The IC50 was 6830 nM.

For `O=C(OCC1CCCCC1)c1nc(-c2ncccc2Cl)nc(O)c1O` [Compound 15, cyclohexylmethyl 2-(3-chloropyridin-2-yl)-5,6-dihydroxypyrimidine-4-carboxylate], which EMSA screening results [1] is on record?
Its EMSA screening results is “Positive (A compound showing >25% inhibition when tested at 100µM concentration is considered as "positive")”.

What about the IC50 [2, 6] of the same compound?
The IC50 was greater than 50000 nM.

And the IC50 [3, 7]?
Its IC50 is 9660 nM.

For `O=C(NCC1CCCCC1)c1nc(-c2ncccc2Cl)nc(O)c1O` [Compound 16, 2-(3-chloropyridin-2-yl)-N-(cyclohexylmethyl)-5,6-dihydroxypyrimidine-4-carboxamide], which EMSA screening results [1] is on record?
The EMSA screening results was “Positive (A compound showing >25% inhibition when tested at 100µM concentration is considered as "positive")”.

What about the IC50 [2, 6] of the same compound?
Its IC50 is 51100 nM.

What about the IC50 [3, 7] of the same compound?
Its IC50 is 2050 nM.

Which results are given for `CC(OC(=O)c1nc(-c2ccccn2)nc(O)c1O)C1CCCCC1` (centres unmarked) [Compound 17, 1-cyclohexylethyl 5,6-dihydroxy-2-(pyridin-2-yl)pyrimidine-4-carboxylate]?
EMSA screening results [1]: Negative; IC50 [2, 4]: > 50000 nM; IC50 [3, 5]: 2030 nM

How did the EMSA screening results [1] turn out when `Cc1cccc(-c2nc(O)c(O)c(C(=O)N[C@H](C)C3CCCCC3)n2)n1` [Compound 18, (R)-N-(1-cyclohexylethyl)-5,6-dihydroxy-2-(6-methylpyridin-2-yl)pyrimidine-4-carboxamide] was run?
Its EMSA screening results is “Positive (A compound showing >25% inhibition when tested at 100µM concentration is considered as "positive")”.

And the IC50 [2, 4]?
The IC50 was 37300 nM.

And the IC50 [3, 5]?
Its IC50 is 437 nM.

What does the source list for `Cc1ccnc(-c2nc(O)c(O)c(C(=O)N[C@H](C)C3CCCCC3)n2)c1` [Compound 19, (R)-N-(1-cyclohexylethyl)-5,6-dihydroxy-2-(4-methylpyridin-2-yl)pyrimidine-4-carboxamide]?
EMSA screening results [1]: Positive (A compound showing >25% inhibition when tested at 100µM concentration is considered as "positive"); IC50 [2, 4]: 15300 nM; IC50 [3, 5]: 218 nM

Which EMSA screening results [1] does the source give for `C[C@@H](NC(=O)c1nc(-c2ccc(N)cn2)nc(O)c1O)C1CCCCC1` [Compound 20, (R)-2-(5-aminopyridin-2-yl)-N-(1-cyclohexylethyl)-5,6-dihydroxypyrimidine-4-carboxamide] here?
The EMSA screening results was “Positive (A compound showing >25% inhibition when tested at 100µM concentration is considered as "positive")”.

And the IC50 [2, 4]?
Its IC50 is 2110 nM.

What about the IC50 [3, 5] of the same compound?
Its IC50 is 94.5 nM.

With `C[C@@H](NC(=O)c1nc(-c2ccc(C(=O)OCc3ccccc3)cn2)nc(O)c1O)C1CCCCC1` [Compound 21, benzyl (R)-6-(4-((1-cyclohexylethyl)carbamoyl)-5,6-dihydroxypyrimidin-2-yl)nicotinate] as the compound, how does the EMSA screening results [1] read?
Its EMSA screening results is “Positive (A compound showing >25% inhibition when tested at 100µM concentration is considered as "positive")”.

What about the IC50 [2, 4] of the same compound?
The IC50 was greater than 50000 nM.

What about the IC50 [3, 5] of the same compound?
Its IC50 is 118 nM.

What does the source list for `C[C@@H](NC(=O)c1nc(-c2ccc3ccccc3n2)nc(O)c1O)C1CCCCC1` [Compound 22, (R)-N-(1-cyclohexylethyl)-5,6-dihydroxy-2-(quinolin-2-yl)pyrimidine-4-carboxamide]?
EMSA screening results [1]: Positive (A compound showing >25% inhibition when tested at 100µM concentration is considered as "positive"); IC50 [2, 4]: 100000 nM; IC50 [3, 5]: 450 nM

Which EMSA screening results [1] does the source give for `Cc1cccnc1-c1nc(O)c(O)c(C(=O)N[C@H](C)C2CCCCC2)n1` [Compound 23, (R)-N-(1-cyclohexylethyl)-5,6-dihydroxy-2-(3-methylpyridin-2-yl)pyrimidine-4-carboxamide] here?
Its EMSA screening results is “Positive (A compound showing >25% inhibition when tested at 100µM concentration is considered as "positive")”.

And the IC50 [2, 4]?
The IC50 was 88500 nM.

What about the IC50 [3, 5] of the same compound?
The IC50 was 203 nM.

What about the EC50 [3, 8] of the same compound?
The EC50 was 200 nM.

Which EMSA screening results [1] does the source give for `O=C(NC1(C2CCCCC2)CC1)c1nc(-c2ccccn2)nc(O)c1O` [Compound 24, N-(1-cyclohexylcyclopropyl)-5,6-dihydroxy-2-(pyridin-2-yl)pyrimidine-4-carboxamide] here?
Its EMSA screening results is “Positive (A compound showing >25% inhibition when tested at 100µM concentration is considered as "positive")”.

What about the IC50 [2, 4] of the same compound?
The IC50 was 3610 nM.

What about the IC50 [3, 5] of the same compound?
The IC50 was 110 nM.

How did the EMSA screening results [1] turn out when `C[C@@H](NC(=O)c1nc(-c2cc3ccccc3cn2)nc(O)c1O)C1CCCCC1` [Compound 25, (R)-N-(1-cyclohexylethyl)-5,6-dihydroxy-2-(isoquinolin-3-yl)pyrimidine-4-carboxamide] was run?
The EMSA screening results was “Positive (A compound showing >25% inhibition when tested at 100µM concentration is considered as "positive")”.

What about the IC50 [2, 4] of the same compound?
The IC50 was 64000 nM.

And the IC50 [3, 5]?
Its IC50 is 32 nM.

For `C[C@@H](NC(=O)c1nc(-c2cc(Cl)ccn2)nc(O)c1O)C1CCCCC1` [Compound 26, (R)-2-(4-chloropyridin-2-yl)-N-(1-cyclohexylethyl)-5,6-dihydroxypyrimidine-4-carboxamide], which EMSA screening results [1] is on record?
Its EMSA screening results is “Positive (A compound showing >25% inhibition when tested at 100µM concentration is considered as "positive")”.

And the IC50 [2, 4]?
The IC50 was 17600 nM.

And the IC50 [3, 5]?
The IC50 was 121 nM.

Which results are given for `C[C@@H](NC(=O)c1nc(-c2cc(C(F)(F)F)ccn2)nc(O)c1O)C1CCCCC1` [Compound 27, (R)-N-(1-cyclohexylethyl)-5,6-dihydroxy-2-(4-(trifluoromethyl)pyridin-2-yl)pyrimidine-4-carboxamide]?
EMSA screening results [1]: Positive (A compound showing >25% inhibition when tested at 100µM concentration is considered as "positive"); IC50 [2, 4]: > 50000 nM; IC50 [3, 5]: 433 nM

What does the source list for `COc1ccnc(-c2nc(O)c(O)c(C(=O)N[C@H](C)C3CCCCC3)n2)c1` [Compound 28, (R)-N-(1-cyclohexylethyl)-5,6-dihydroxy-2-(4-methoxypyridin-2-yl)pyrimidine-4-carboxamide]?
EMSA screening results [1]: Positive (A compound showing >25% inhibition when tested at 100µM concentration is considered as "positive"); IC50 [2, 4]: 34300 nM; IC50 [3, 5]: 40.5 nM; EC50 [3, 8]: 41 nM
